The values below come from patent US9254288B2, “Susceptibility of tumors to tyrosine kinase inhibitors and treatment thereof” (THE TRANSLATIONAL GENOMICS RESEARCH INSTITUTE, priority 2012, dated 2016).

Test [1] has as its system BaF3/FGFR2b N550K. Briefly: BaF3 cell viability (ViaLight), FGFR2b N550K. The format is cell-based, murine. As to conditions: for activity against or resistance of N550K, cell viability: BaF3 N550K.
Test [2] relates to stable BaF3-FGFR2 cells, dovitinib-resistant FGFR2 mutants. Briefly: BaF3 cell viability, panel of dovitinib-resistant FGFR2 mutations. As to conditions: FGF10-induced proliferation.
Description: (§1) pEF1a.FGFR2b.IRES.neo or the various FGFR2b mutant plasmids were introduced into BaF3 cells using the Amaxa nucleofector kit V, according to the manufacturer's instructions (Amaxa, Walkersville, Md.). Cells were selected in growth media containing 1200 μg/ml G418 and 5 ng/ml IL3 for 14 days and frozen down.
(§2) After 72 hours, cell viability was measured using the ViaLight kit (Lonza, Walkersville, Md.). Values were normalized to DMSO vehicle control wells and IC50 values generated by nonlinear regression analysis with variable slope using Prism software version 4.0c (GraphPad Software, San Diego, Calif.). […] Following 72 hours of drug treatment, cell viability was assessed using the CyQUANT Cell Proliferation Assay Kit (Life Technologies, Carlsbad, Calif.). Values were normalized to DMSO vehicle control wells and IC50 values calculated as described above. Proliferation assays were performed in triplicate on two independent days and the results averaged.
In test [3] the test system is BaF3 FGFR2 K660E. Briefly: BaF3 cell viability, FGFR2 K660E.
Description: as §1, §2
Test [4] deals with BaF3 FGFR2 V565I. Briefly: BaF3 cell viability, FGFR2b V565I gatekeeper mutant. The format is cell-based, murine.
Test [5] concerns BaF3/FGFR2b wildtype. Briefly: BaF3 cell viability (ViaLight), wild-type FGFR2b. As to conditions: Mus musculus, BaF3, 72 h, read-out: IC50 value in BaF3/FGFR2b wildtype. The format is cell-based, murine.
Test [6] deals with AN3CA. To be noted: cited from earlier work.
Test [7] has as its system endometrial cancer cell lines. Briefly: Endometrial cancer cell line panel viability (CyQUANT). To be noted: FGFR2 mutant and wild-type endometrial cancer lines, 72 hours.
Description: as §2
The subject of test [8] is MFE296. As to conditions: MFE296, carries N550K FGFR2 mutation; cited from earlier work.
The subject of test [9] is MFE280. As to conditions: MFE280, FGFR-mutant EC line; cited from earlier work.
The subject of test [10] is EJ. Briefly: Endometrial cancer cell viability, EJ. As to conditions: Homo sapiens, 72 h. It is filed as cell-based.
Test [11] deals with JHUEM-2 cells expressing FGFR2N550K. Briefly: JHUEM-2 cells stably expressing FGFR2N550K, cell viability. The format is cell-based. As to conditions: JHUEM-2 FGFR2N550K vs control lines (FIG. 8A).
The test system of test [12] is EI. Briefly: Endometrial cancer cell viability, EI. The format is cell-based. To be noted: 72 h.
Test [13] has as its system BaF3 cells expressing the E719G mutant FGFR2. Briefly: BaF3 cell viability, FGFR2b E719G. To be noted: E719G alone vs wild-type FGFR2. The format is cell-based, murine.
Test [14] concerns EN1078D. Briefly: Endometrial cancer cell viability, EN1078D. The format is cell-based. As to conditions: 72 h.

Take `CCN1CCN(c2ccc(Nc3cc(N(C)C(=O)Nc4c(Cl)c(OC)cc(OC)c4Cl)ncn3)cc2)CC1` [BGJ398]: the “activity against or resistance of N550K, cell viability” value in test [1] was “good activity”. Also, the “sensitivity or resistance of the FGFR2 mutation panel, cell viability” value (“sensitivity or resistance” below) in [2] is on record as “all FGFR2 kinase mutations except the V565I from the mutation panel are sensitive”. In addition, the “activity against K660E activating mutation, cell viability” value in test [3] is “good activity”.
In the case of `CNC(=O)c1cc(Oc2ccc(NC(=O)Nc3cc(C(C)(C)C)nn3-c3ccc4ncccc4c3)c(F)c2)ccn1` [DCC2036], the “sensitivity or resistance” value in test [2] was “most FGFR2 kinase mutations except N550K from this BaF3 resistance screen are sensitive”.
Consider `CCN(CC)CCCCNc1ncc2cc(-c3cc(OC)cc(OC)c3)c(NC(=O)NC(C)(C)C)nc2n1` [PD173074], for which, in test [4], the “activity against or resistance of V565I gatekeeper mutation, cell viability” value is reported as “greatest resistance”. Moreover, the IC50 in [5] was 4.5 nM; in test [1] (Mus musculus, BaF3, 72 h, read-out: IC50 value in N550K resistance cells), 776 nM; in test [10] it was above 4000 nM; in test [12], above 4000 nM; in test [14], above 4000 nM. In addition, the “fold difference in IC50, N550K versus wildtype” value in test [1] (BaF3/FGFR2b N550K vs wildtype) is on record as “over 170 fold”. Further, in test [1], the “activity against or resistance of N550K, cell viability” value is “greatest resistance”. For the same compound, in [2], the “sensitivity or resistance” value was “imparted resistance”. Also, the “growth arrest and cell death” value is “induced G1 growth arrest and cell death” in [6] (FGFR-mutant EC line); “induced G1 growth arrest and cell death” in test [9]. Moreover, the “sensitivity to FGFR inhibition” value in test [6] (carries N550K FGFR2 mutation) and in test [8] was “sensitive” throughout. In addition, the “order of sensitivity across the cell line panel” value in [7] is “least sensitive”. The “fold increase in the IC50” value in test [11] is around 5 fold. Also, the “resistance conferred by E719G mutation” value in test [13] is “did not induce resistance”.
